Drawing on ChEMBL document CHEMBL5096210, “Discovery of Betulinic Acid Derivatives as Potent Intestinal Farnesoid X Receptor Antagonists to Ameliorate Nonalcoholic Steatohepatitis” (J Med Chem, 2022), this text covers IC50 for 27 compounds.

One data set concerns the target T1, Bile acid receptor (Homo sapiens, UniProt Q96RI1).
T1 sequence (Q96RI1 whole entry): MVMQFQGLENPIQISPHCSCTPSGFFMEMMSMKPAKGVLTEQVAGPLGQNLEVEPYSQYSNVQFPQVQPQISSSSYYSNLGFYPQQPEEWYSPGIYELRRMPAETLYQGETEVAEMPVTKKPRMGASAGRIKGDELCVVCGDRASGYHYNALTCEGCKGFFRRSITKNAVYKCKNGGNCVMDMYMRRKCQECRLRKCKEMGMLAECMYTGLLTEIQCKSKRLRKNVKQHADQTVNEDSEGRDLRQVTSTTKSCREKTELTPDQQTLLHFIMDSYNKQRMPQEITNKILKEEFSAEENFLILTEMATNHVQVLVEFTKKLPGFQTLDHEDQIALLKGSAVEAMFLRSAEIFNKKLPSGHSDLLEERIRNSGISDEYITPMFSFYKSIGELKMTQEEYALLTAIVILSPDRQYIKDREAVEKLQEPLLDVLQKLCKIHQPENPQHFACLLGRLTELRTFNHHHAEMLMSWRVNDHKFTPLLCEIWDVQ
The data set is described as follows: Antagonist activity at FXR (unknown origin) expressed in HEK293T cells cotransfected with pCMV-Script-hFXR/pGL4.11-hSHP-Luciferase incubated for 24 hrs in presence of GW4064 by Steady-glo luciferase assay. In kind it is cell-based.

The nature of data set [1]: Cytotoxicity against HEK293T cells cotransfected with pCMV-Script-hFXR/pGL4.11-hSHP-Luciferase incubated for 24 hrs in presence of GW4064 by celltiter-blue cell viability assay. In kind it is toxicity, cell-based, HEK-293T. Particulars: human. A general note: The colour change of resazurin is a common sign of viable cells or microbes.

Each structure is given as a SMILES string. A value given as a limit tells only on which side of the number the result lay.

By IC50 is commonly meant the concentration needed to halve the response being measured.

As for `CCCC(=O)O[C@@H]1CC[C@]2(C)[C@H]3CC[C@@H]4[C@H]5[C@H](C(C)=O)CC[C@]5(C(=O)NCC(=O)O)CC[C@@]4(C)[C@]3(C)CC[C@H]2C1(C)C`, at Bile acid receptor, the concentration for half-maximal inhibition (IC50) was found to be 10 µM. Further, in data set [1], the IC50 at 24 h was 44.3 µM.
Take `CC(C)[C@@H]1CC[C@]2(C(=O)O)CC[C@@H]3[C@H](CC[C@H]4[C@@]3(C)CC[C@H]3C(C)(C)[C@H](O)CC[C@]43C)[C@@H]12`: the IC50 at Bile acid receptor stood at 7.9 µM. Further, in data set [1], the IC50 at 24 h was found to be 61.7 µM.
In the case of `CC(C)[C@@H]1CC[C@]2(C(=O)NCC(=O)O)CC[C@]3(C)[C@H](CC[C@@H]4[C@@]5(C)CC[C@@H](OC(=O)C6CCC6)C(C)(C)[C@@H]5CC[C@]43C)[C@@H]12`, the half-inhibitory concentration (IC50) on Bile acid receptor is 4.1 µM. Besides, the IC50 at 24 h in data set [1] is > 100 µM.
On the same counts, the results for `CCCCC(=O)O[C@@H]1CC[C@]2(C)[C@H]3CC[C@@H]4[C@H]5[C@H](C(C)C)CC[C@]5(C(=O)NCC(=O)O)CC[C@@]4(C)[C@]3(C)CC[C@H]2C1(C)C` are 3 µM and > 100 µM.
In the case of `CCNC(=O)O[C@@H]1CC[C@]2(C)[C@H]3CC[C@@H]4[C@H]5[C@H](C(C)C)CC[C@]5(C(=O)NCC(=O)O)CC[C@@]4(C)[C@]3(C)CC[C@H]2C1(C)C`, the IC50 at Bile acid receptor amounted to 3.4 µM. The IC50 at 24 h in data set [1] was determined as 56 µM.
On the same counts, the results for `COc1ccc(C(=O)O[C@@H]2CC[C@]3(C)[C@H]4CC[C@@H]5[C@H]6[C@H](C(C)C)CC[C@]6(C(=O)NCC(=O)O)CC[C@@]5(C)[C@]4(C)CC[C@H]3C2(C)C)cc1` are 4.1 µM and > 100 µM.
For the compound `CC(C)[C@@H]1CC[C@]2(C(=O)NCC(=O)O)CC[C@]3(C)[C@H](CC[C@@H]4[C@@]5(C)CC[C@@H](OC(=O)c6ccco6)C(C)(C)[C@@H]5CC[C@]43C)[C@@H]12`, the half-maximal inhibitory concentration (IC50) on Bile acid receptor is > 100 µM. For the same compound, the 50% inhibitory concentration (IC50) at 24 h in data set [1] was > 100 µM.
In the case of `CCNS(=O)(=O)O[C@@H]1CC[C@]2(C)[C@H]3CC[C@@H]4[C@H]5[C@H](C(C)C)CC[C@]5(C(=O)NCC(=O)O)CC[C@@]4(C)[C@]3(C)CC[C@H]2C1(C)C`, in data set [1], the IC50 at 24 h was > 100 µM.
Consider `CCCC(=O)O[C@@H]1CC[C@]2(C)[C@H]3CC[C@@H]4[C@H]5[C@H](C(C)C)CC[C@]5(C(=O)NCCC(=O)O)CC[C@@]4(C)[C@]3(C)CC[C@H]2C1(C)C`, for which the IC50 at Bile acid receptor came out at 9.9 µM. Further, in data set [1], the IC50 at 24 h was > 100 µM.
On to `CCCC(=O)O[C@@H]1CC[C@]2(C)[C@H]3CC[C@@H]4[C@H]5[C@H](C(C)C)CC[C@]5(C(=O)NCCS(=O)(=O)O)CC[C@@]4(C)[C@]3(C)CC[C@H]2C1(C)C`, for which the 50% inhibitory concentration (IC50) at Bile acid receptor was > 100 µM. The 50% inhibitory concentration (IC50) at 24 h in data set [1] is > 100 µM.
Turning to `CCOC(=O)O[C@@H]1CC[C@]2(C)[C@H]3CC[C@@H]4[C@H]5[C@H](C(C)C)CC[C@]5(C(=O)NCC(=O)O)CC[C@@]4(C)[C@]3(C)CC[C@H]2C1(C)C`, at Bile acid receptor, the half-maximal inhibitory concentration (IC50) stood at 7.3 µM. Besides, the IC50 at 24 h in data set [1] was > 100 µM.
On the same counts, the results for `CCCC(=O)O[C@@H]1CC[C@]2(C)[C@H]3CC[C@@H]4[C@H]5[C@H](C(C)C)CC[C@]5(NC(=O)OCC(=O)O)CC[C@@]4(C)[C@]3(C)CC[C@H]2C1(C)C` are 0.9 µM and 1 µM.
For the compound `CCC(=O)O[C@@H]1CC[C@]2(C)[C@H]3CC[C@@H]4[C@H]5[C@H](C(C)C)CC[C@]5(C(=O)NCC(=O)O)CC[C@@]4(C)[C@]3(C)CC[C@H]2C1(C)C`, the IC50 at Bile acid receptor was determined as 9.1 µM. Besides, the half-maximal inhibitory concentration (IC50) at 24 h in data set [1] was > 100 µM.
On the same counts, the results for `CCCS(=O)(=O)O[C@@H]1CC[C@]2(C)[C@H]3CC[C@@H]4[C@H]5[C@H](C(C)C)CC[C@]5(C(=O)NCC(=O)O)CC[C@@]4(C)[C@]3(C)CC[C@H]2C1(C)C` are 14 µM and > 100 µM.
On to `CC(C)C(=O)O[C@@H]1CC[C@]2(C)[C@H]3CC[C@@H]4[C@H]5[C@H](C(C)C)CC[C@]5(C(=O)NCC(=O)O)CC[C@@]4(C)[C@]3(C)CC[C@H]2C1(C)C`, for which the IC50 at Bile acid receptor came out at 4.6 µM. Besides, in data set [1], the IC50 at 24 h was > 100 µM.
For the compound `CCCC(=O)O[C@@H]1CC[C@]2(C)[C@H]3CC[C@@H]4[C@H]5[C@H](C(C)C)CC[C@]5(C(=O)N[C@@H](C)C(=O)O)CC[C@@]4(C)[C@]3(C)CC[C@H]2C1(C)C`, the IC50 at 24 h in data set [1] worked out at 37.7 µM.
Turning to `CCCC(=O)O[C@@H]1CC[C@]2(C)[C@H]3CC[C@@H]4[C@H]5[C@H]([C@@H](C)C(=O)O)CC[C@]5(C(=O)NCC(=O)O)CC[C@@]4(C)[C@]3(C)CC[C@H]2C1(C)C`, the IC50 at Bile acid receptor is 25.7 µM. Also, the IC50 at 24 h in data set [1] came to 97.2 µM.
On to `CC(C)[C@@H]1CC[C@]2(C(=O)NCC(=O)O)CC[C@]3(C)[C@H](CC[C@@H]4[C@@]5(C)CC[C@@H](OC(=O)c6ccc(F)cc6)C(C)(C)[C@@H]5CC[C@]43C)[C@@H]12`, for which the IC50 at 24 h in data set [1] was determined as 55.7 µM.
As for `CCCC(=O)O[C@@H]1CC[C@]2(C)[C@H]3CC[C@@H]4[C@H]5[C@H](C(C)C)CC[C@]5(C(=O)NCC(=O)NS(C)(=O)=O)CC[C@@]4(C)[C@]3(C)CC[C@H]2C1(C)C`, the half-maximal inhibitory concentration (IC50) on Bile acid receptor was 12.1 µM. Besides, the concentration for half-maximal inhibition (IC50) at 24 h in data set [1] was > 100 µM.
On the same counts, the results for `CCCC(=O)O[C@@H]1CC[C@]2(C)[C@H]3CC[C@@H]4[C@H]5[C@H](C(C)C)CC[C@]5(NC(=O)NCC(=O)O)CC[C@@]4(C)[C@]3(C)CC[C@H]2C1(C)C` are 1.1 µM and 1.3 µM.
On the same counts, the results for `CCCC(=O)O[C@H]1CC[C@]2(C)[C@H]3CC[C@@H]4[C@H]5[C@H](C(C)C)CC[C@]5(C(=O)NCC(=O)O)CC[C@@]4(C)[C@]3(C)CC[C@H]2C1(C)C` are 13 µM and > 100 µM.
For the compound `CCCC(=O)O[C@@H]1CC[C@]2(C)[C@H]3CC[C@@H]4[C@H]5[C@H](C(C)C)CC[C@]5(C(=O)OCC(=O)O)CC[C@@]4(C)[C@]3(C)CC[C@H]2C1(C)C`, on Bile acid receptor, the IC50 came to 1.9 µM. Moreover, the 50% inhibitory concentration (IC50) at 24 h in data set [1] is 29.2 µM.
On the same counts, the results for `CC(C)[C@@H]1CC[C@]2(C(=O)NCC(=O)O)CC[C@]3(C)[C@H](CC[C@@H]4[C@@]5(C)CC[C@@H](OC(=O)c6ccccc6)C(C)(C)[C@@H]5CC[C@]43C)[C@@H]12` are 1.1 µM and 35 µM.
On the same counts, the results for `CCCC(=O)O[C@@H]1CC[C@]2(C)[C@H]3CC[C@@H]4[C@H]5[C@H]([C@@H](C)CO)CC[C@]5(C(=O)NCC(=O)O)CC[C@@]4(C)[C@]3(C)CC[C@H]2C1(C)C` are 14.1 µM and > 100 µM.
Consider `CCCC(=O)O[C@@H]1CC[C@]2(C)[C@H]3CC[C@@H]4[C@H]5[C@H](C(=O)CO)CC[C@]5(C(=O)NCC(=O)O)CC[C@@]4(C)[C@]3(C)CC[C@H]2C1(C)C`, for which, in data set [1], the half-inhibitory concentration (IC50) at 24 h was 25.3 µM.
On to `CC(C)[C@@H]1CC[C@]2(C(=O)NCC(=O)O)CC[C@]3(C)[C@H](CC[C@@H]4[C@@]5(C)CC[C@@H](OC(=O)C6CC6)C(C)(C)[C@@H]5CC[C@]43C)[C@@H]12`, for which the IC50 on Bile acid receptor came out at 10 µM. For the same compound, the IC50 at 24 h in data set [1] was > 100 µM.
The matching figures for `CC(C)[C@@H]1CC[C@]2(C(=O)NCC(=O)O)CC[C@]3(C)[C@H](CC[C@@H]4[C@@]5(C)CC[C@@H](OC(=O)C6CCCC6)C(C)(C)[C@@H]5CC[C@]43C)[C@@H]12`: 1.6 µM and 2 µM.
